Measured values as given in US8952024B2, “Herbicidal pyrimidone derivatives” (E I du Pont de Nemours and Company, priority 2009, dated 2015).

Experiments:
Assay type in all cases: in vivo
[1] = system: rice (Oryza sativa); experiment: Test B flooded paddy test; conditions: for Plant response rating, Flood, Rice: 250 g ai/ha, flooded paddy test, visual rating on 0 to 100 scale (0 no effect, 100 complete control) after 13 to 15 days; for Plant response rating, Rice: Flood (flooded paddy test), 13 to 15 days; for Rice plant response rating: Flood, 31 g ai/ha, scale 0 to 100 (0 no effect, 100 complete control)
In short: (§1)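 Rice, umbrella sedge, ducksalad and barnyardgrass were grown to the 2-leaf stage, flooded to 3 cm, and compound was applied directly to the paddy water, with that depth kept throughout. After 13 to 15 days in the greenhouse, plants were visually rated against controls on a 0 (no effect) to 100 (complete control) scale.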

[2] = system: ducksalad (Heteranthera limosa); experiment: Test B flooded paddy test; conditions: for Plant response rating, Flood, Ducksalad: 250 g ai/ha, flooded paddy test, visual rating on 0 to 100 scale (0 no effect, 100 complete control) after 13 to 15 days; for Plant response rating, Ducksalad: Flood (flooded paddy test), 13 to 15 days; for Ducksalad plant response rating: Flood, 31 g ai/ha, scale 0 to 100 (0 no effect, 100 complete control)
In short: as §1

[3] = system: umbrella sedge (Cyperus difformis); experiment: Test B flooded paddy test; conditions: for Plant response rating, Flood, Sedge, Umbrella: 250 g ai/ha, flooded paddy test, visual rating on 0 to 100 scale (0 no effect, 100 complete control) after 13 to 15 days; for Plant response rating, Sedge, Umbrella: Flood (flooded paddy test), 13 to 15 days; for Sedge, Umbrella plant response rating: Flood, 31 g ai/ha, scale 0 to 100 (0 no effect, 100 complete control)
In short: as §1

[4] = system: barnyardgrass (Echinochloa crus-galli); experiment: Test B flooded paddy test; conditions: for Plant response rating, Flood, Barnyardgrass: 250 g ai/ha, flooded paddy test, visual rating on 0 to 100 scale (0 no effect, 100 complete control) after 13 to 15 days; for Plant response rating, Barnyardgrass: Flood (flooded paddy test), 13 to 15 days; for Barnyardgrass plant response rating: Flood, 31 g ai/ha, scale 0 to 100 (0 no effect, 100 complete control)
In short: as §1

[5] = system: pigweed (Amaranthus retroflexus); experiment: Test A pre-/postemergence plant response
In short: (§2)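 Greenhouse trial, ~10 days. Soil (loam/sand) sprayed preemergence after seeding; emerged plants (1–2 leaf, 2–10 cm) sprayed postemergence in parallel. Response = visual injury vs untreated control, 0–100.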

[6] = system: morningglory (Ipomoea spp.); experiment: Test A pre-/postemergence plant response
In short: as §2

[7] = system: velvetleaf (Abutilon theophrasti); experiment: Test A pre-/postemergence plant response
In short: as §2

[8] = system: wheat (Triticum aestivum); experiment: Test A pre-/postemergence plant response
In short: as §2

[9] = system: large crabgrass (Digitaria sanguinalis); experiment: Test A pre-/postemergence plant response; conditions: for Crabgrass, Large plant response rating: visual injury, 0 to 100 scale (0 no effect, 100 complete control), approx. ten days
In short: as §2

[10] = system: giant foxtail (Setaria faberii); experiment: Test A pre-/postemergence plant response
In short: as §2

[11] = system: corn (Zea mays); experiment: Test A pre-/postemergence plant response; conditions: for Corn plant response rating: visual injury, 0 to 100 scale (0 no effect, 100 complete control), approx. ten days
In short: as §2

[12] = system: barnyardgrass (Echinochloa crus-galli); experiment: Test A pre-/postemergence plant response; conditions: for Barnyardgrass plant response rating: visual injury, 0 to 100 scale (0 no effect, 100 complete control), approx. ten days
In short: as §2

[13] = 62 g ai/ha, scale of 0 to 100 where 0 is no effect and 100 is complete control
[14] = 125 g ai/ha, scale 0 to 100, 0 is no effect, 100 is complete control
[15] = Postemergence, 125 g ai/ha, visual injury, 0 to 100 scale (0 no effect, 100 complete control), approx. ten days
[16] = Postemergence, 500 g ai/ha, visual injury, 0 to 100 scale (0 no effect, 100 complete control), approx. ten days
[17] = Preemergence, 125 g ai/ha, 0 to 100 scale where 0 is no effect and 100 is complete control, approximately ten days
[18] = Preemergence, 500 g ai/ha, 0 to 100 scale, 0 = no effect, 100 = complete control
[19] = Postemergence, 125 g ai/ha, 0 to 100 scale where 0 is no effect and 100 is complete control

`O=C(C1=C(O)C2CCC(C2)C1=O)c1cnc(-c2ccccc2)n(C2CCCCCC2)c1=O` (centres unmarked) [Compound 253] was tested, and the “Plant response rating, Flood, Rice” value [1] was 20, the “Plant response rating, Rice” value [1, 13] was 0 and the “Plant response rating, Rice” value [1, 14] was 0. For the same molecule, the “Rice plant response rating” value [1] was 0, the “Plant response rating, Flood, Ducksalad” value [2] was 90 and the “Plant response rating, Ducksalad” value [2, 13] was 75. The “Plant response rating, Ducksalad” value [2, 14] was 85, the “Ducksalad plant response rating” value [2] was 60 and the “Plant response rating, Flood, Sedge, Umbrella” value [3] was 85. The “Plant response rating, Sedge, Umbrella” value [3, 13] was 65, the “Plant response rating, Sedge, Umbrella” value [3, 14] was 75 and the “Sedge, Umbrella plant response rating” value [3] was 60. The “Plant response rating, Flood, Barnyardgrass” value [4] was 20, the “Plant response rating, Barnyardgrass” value [4, 13] was 0 and the “Plant response rating, Barnyardgrass” value [4, 14] was 0. For the same molecule, the “Barnyardgrass plant response rating” value [4] was 0, the “Plant response rating, Pigweed” value [5, 15] was 90 and the “Pigweed plant response rating” value [5, 16] was 100. The “Plant response rating, Pigweed” value [5, 17] was 20, the “Plant response rating, Pigweed” value [5, 18] was 80 and the “Plant response rating, Morningglory” value [6, 15] was 100. For the same molecule, the “Morningglory plant response rating” value [6, 16] was 100, the “Plant response rating, Morningglory” value [6, 17] was 40 and the “Plant response rating, Morningglory” value [6, 18] was 70. The “Plant response rating, Velvetleaf” value [7, 15] was 100, the “Velvetleaf plant response rating” value [7, 16] was 100 and the “Plant response rating, Velvetleaf” value [7, 17] was 50. For the same molecule, the “Plant response rating, Velvetleaf” value [7, 18] was 90, the “Plant response rating, Wheat” value [8, 15] was 0 and the “Wheat plant response rating” value [8, 16] was 20. For the same molecule, the “Plant response rating, Wheat” value [8, 17] was 0, the “Plant response rating, Wheat” value [8, 18] was 20 and the “Plant response rating, Crabgrass, Large” value [9, 19] was 80. The “Crabgrass, Large plant response rating” value ([9]; Postemergence, 500 g ai/ha) was 100, the “Plant response rating, Crabgrass, Large” value [9, 17] was 30 and the “Plant response rating, Crabgrass, Large” value [9, 18] was 80. The “Plant response rating, Foxtail, Giant” value [10, 15] was 60, the “Foxtail, Giant plant response rating” value [10, 16] was 100 and the “Plant response rating, Foxtail, Giant” value [10, 17] was 20. For the same molecule, the “Plant response rating, Foxtail, Giant” value [10, 18] was 70, the “Plant response rating, Corn” value [11, 19] was 10 and the “Corn plant response rating” value ([11]; Postemergence, 500 g ai/ha) was 40. The “Plant response rating, Corn” value [11, 17] was 0, the “Plant response rating, Barnyardgrass” value [12, 19] was 100 and the “Barnyardgrass plant response rating” value ([12]; Postemergence, 500 g ai/ha) was 100. For the same molecule, the “Plant response rating, Barnyardgrass” value [12, 17] was 10 and the “Plant response rating, Barnyardgrass” value [12, 18] was 20.
For `COc1ccc(-n2c(-c3ccccc3)ncc(C(=O)C3=C(O)CCCC3=O)c2=O)c(OC)c1` [Compound 256], the “Plant response rating, Flood, Rice” value [1] was 0, the “Plant response rating, Rice” value [1, 13] was 0 and the “Plant response rating, Rice” value [1, 14] was 0. For the same molecule, the “Rice plant response rating” value [1] was 0, the “Plant response rating, Flood, Ducksalad” value [2] was 85 and the “Plant response rating, Ducksalad” value [2, 13] was 40. For the same molecule, the “Plant response rating, Ducksalad” value [2, 14] was 80, the “Ducksalad plant response rating” value [2] was 30 and the “Plant response rating, Flood, Sedge, Umbrella” value [3] was 75. For the same molecule, the “Plant response rating, Sedge, Umbrella” value [3, 13] was 40, the “Plant response rating, Sedge, Umbrella” value [3, 14] was 75 and the “Sedge, Umbrella plant response rating” value [3] was 30. The “Plant response rating, Flood, Barnyardgrass” value [4] was 0, the “Plant response rating, Barnyardgrass” value [4, 13] was 0 and the “Plant response rating, Barnyardgrass” value [4, 14] was 0. For the same molecule, the “Barnyardgrass plant response rating” value [4] was 0, the “Plant response rating, Pigweed” value [5, 15] was 90 and the “Pigweed plant response rating” value [5, 16] was 100. For the same molecule, the “Plant response rating, Pigweed” value [5, 17] was 0, the “Plant response rating, Pigweed” value [5, 18] was 90 and the “Plant response rating, Morningglory” value [6, 15] was 30. For the same molecule, the “Morningglory plant response rating” value [6, 16] was 80, the “Plant response rating, Morningglory” value [6, 17] was 0 and the “Plant response rating, Morningglory” value [6, 18] was 50. The “Plant response rating, Velvetleaf” value [7, 15] was 100, the “Velvetleaf plant response rating” value [7, 16] was 100 and the “Plant response rating, Velvetleaf” value [7, 17] was 20. For the same molecule, the “Plant response rating, Velvetleaf” value [7, 18] was 80, the “Plant response rating, Wheat” value [8, 15] was 0 and the “Wheat plant response rating” value [8, 16] was 0. The “Plant response rating, Wheat” value [8, 17] was 0, the “Plant response rating, Wheat” value [8, 18] was 0 and the “Plant response rating, Crabgrass, Large” value [9, 19] was 30. For the same molecule, the “Crabgrass, Large plant response rating” value ([9]; Postemergence, 500 g ai/ha) was 80, the “Plant response rating, Crabgrass, Large” value [9, 17] was 10 and the “Plant response rating, Crabgrass, Large” value [9, 18] was 80. For the same molecule, the “Plant response rating, Foxtail, Giant” value [10, 15] was 20, the “Foxtail, Giant plant response rating” value [10, 16] was 70 and the “Plant response rating, Foxtail, Giant” value [10, 17] was 0. The “Plant response rating, Foxtail, Giant” value [10, 18] was 30, the “Plant response rating, Corn” value [11, 19] was 0 and the “Corn plant response rating” value ([11]; Postemergence, 500 g ai/ha) was 10. The “Plant response rating, Corn” value [11, 17] was 0, the “Plant response rating, Corn” value [11, 18] was 0 and the “Plant response rating, Barnyardgrass” value [12, 19] was 40. The “Barnyardgrass plant response rating” value ([12]; Postemergence, 500 g ai/ha) was 90, the “Plant response rating, Barnyardgrass” value [12, 17] was 0 and the “Plant response rating, Barnyardgrass” value [12, 18] was 70.
